Measured values published in US20260158011A1 (Achieve Life Sciences, Inc., priority 2023, published 2026).
Where two headings read alike, the source gives them in different places.

Experiments:
[1] = tested on: adult e-cigarette users; conditions: for Saliva Cotinine Change from Baseline, LS Means Difference from Placebo / Saliva Cotinine Change from Baseline, LS Means: repeated-measures ANOVA; for Saliva Cotinine Actual Value, Mean / Saliva Cotinine Actual Value, Median / Saliva Cotinine Change from Baseline, Mean / Saliva Cotinine Change from Baseline, Median: 12 Weeks arm, All Randomized Set
Description: A second measurement consisted of biochemically verified continuous vaping abstinence at any time during treatment, with vaping abstinence at Week 3-6 or Week 6-9 for of cytisinicline treatment vs placebo. 7-day point prevalence rates were compared for vaping abstinence (Week 2 to 12) (FIG. 62). An additional measurement included reduction in daily vaping as measured by cotinine, where cytisinicline treatment vs placebo for a reduction in nicotine vaping using weekly quantitative cotinine levels from Week 2 to Week 12. Safety was assessed by adverse effects and serious adverse effects, considering number, severity, and attribution to study drug.
Cotinine: The data were analyzed by visit and also using a repeated measures model. […] Cotinine values less than 1 were converted to 1 due to asymmetry.

[2] = tested on: adults smoking 10+ cigarettes daily; conditions: for Quit Rate, End-of-Treatment Week 4 / Quit Rate, Continuous Abstinence Weeks 5 to 8: CO<10 ppm confirmed; for Reduction in cigarettes smoked / Reduction in CO: 25 days; for Drug-placebo difference in quit rate: cytisinicline 3.0 mg TID; for Reduction in CO: expired CO; for Quit Rate, Continuous Abstinence Weeks 5 to 8: off treatment
Description: This was a six-arm, multi-center, double-blind, randomized, placebo-controlled study conducted in male or female adults ≥18 years of age, smoking 10+ cigarettes daily, and willing to set a quit date that is 5-7 days after randomization. […] The study also evaluated the effectiveness of a simplified TID dosing schedule for 1.5 mg and an increased dose of 3.0 mg (using both the commercial titration (COM) and simplified TID dosing schedules).
Study treatment started the day after randomization such that study treatment was initiated prior to the quit date, as shown in FIG. 3.
The primary efficacy endpoint for this study was the percent reduction in the number of cigarettes smoked during treatment, which was calculated as follows:
where N=total number of cigarettes smoked, B=number of cigarettes smoked at baseline and D=number of days.
The primary outcome (Cigarette Score) and the main secondary abstinence outcomes were subjected to sensitivity analyses. The main secondary abstinence outcomes were the initial quit rate at Week 4 and continued 4-week abstinence through Week 5 to Week 8, confirmed by expired carbon monoxide (CO) of <10 ppm designated as Cess/W5-8/CO Success.
Carbon monoxide (CO) levels (ppm) were assessed during the study at screening, baseline, end of study treatment intervention (Week 4), and weekly through Week 8 (FIG. 9).
Serum cotinine levels were exploratory and assessed only at screening, Week 4, and Week 8. Reported results for cotinine of <10 ng/mL were transformed to 0 ng/mL prior to statistical analysis.
The primary outcome was based on the number of cigarettes smoked on each day from a diary. The Cigarette Score used the diary data for the planned 25 days while on study treatment. Presented are sensitivity analyses for the comparison of the 3.0 mg TID arm and the pooled placebo arm related to variations on the primary analysis of Cigarette Score. The alternative definition of the Cigarette Score featured cigarettes recorded in the diary after the planned quit period of Days 5-7, that is, from Day 8 onward, instead of from Day 1 onward.
Another alterative analysis was based on re-analyses of the primary Cigarette Score and the above alternative Cigarette Score, with a weight related to the standard error of the mean number of cigarettes estimated from the diary entries. The weight used for each subject was 1/(SE)^2, where SE is the standard error of the mean estimate, and this type of weighting, referred to as inverse variance weighting, is used commonly. This weighting gives greater weight to means that are estimated with a smaller SE. A small modification to this definition of weight was necessary, however. In computing 1/(SE)^2, a specific rule was used when SE=0, specifically when all diary entry values were equal. In these cases, the SE was computed as if one and only one of the recorded values was larger by one. It can be shown that when this modification to the data is made SE=1/N, where N is the number of the subjects daily (days) entries.

[3] = biological target: neuronal alpha4, beta2 (α4β2) receptors (Homo sapiens, UniProt P17787+P43681); conditions: background studies; cited from earlier work
Chain of neuronal alpha4, beta2 (α4β2) receptors (P43681 29-627 limits assumed): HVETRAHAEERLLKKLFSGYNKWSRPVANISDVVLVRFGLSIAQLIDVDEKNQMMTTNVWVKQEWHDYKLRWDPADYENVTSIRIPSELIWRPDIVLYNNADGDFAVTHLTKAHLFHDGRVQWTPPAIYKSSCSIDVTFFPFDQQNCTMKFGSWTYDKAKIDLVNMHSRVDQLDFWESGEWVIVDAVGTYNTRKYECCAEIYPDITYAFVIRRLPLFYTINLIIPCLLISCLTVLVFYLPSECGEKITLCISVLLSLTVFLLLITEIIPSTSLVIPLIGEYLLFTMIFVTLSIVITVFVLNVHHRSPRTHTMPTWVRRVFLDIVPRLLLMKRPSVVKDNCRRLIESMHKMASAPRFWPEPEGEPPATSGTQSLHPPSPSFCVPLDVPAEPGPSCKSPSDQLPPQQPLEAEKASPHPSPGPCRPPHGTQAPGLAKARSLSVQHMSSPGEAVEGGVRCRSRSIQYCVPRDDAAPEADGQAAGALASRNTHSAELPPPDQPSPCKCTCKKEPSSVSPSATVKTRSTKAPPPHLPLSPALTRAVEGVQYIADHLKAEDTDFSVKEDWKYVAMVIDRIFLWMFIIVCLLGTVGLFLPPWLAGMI
Chain of neuronal alpha4, beta2 (α4β2) receptors (P17787 26-502): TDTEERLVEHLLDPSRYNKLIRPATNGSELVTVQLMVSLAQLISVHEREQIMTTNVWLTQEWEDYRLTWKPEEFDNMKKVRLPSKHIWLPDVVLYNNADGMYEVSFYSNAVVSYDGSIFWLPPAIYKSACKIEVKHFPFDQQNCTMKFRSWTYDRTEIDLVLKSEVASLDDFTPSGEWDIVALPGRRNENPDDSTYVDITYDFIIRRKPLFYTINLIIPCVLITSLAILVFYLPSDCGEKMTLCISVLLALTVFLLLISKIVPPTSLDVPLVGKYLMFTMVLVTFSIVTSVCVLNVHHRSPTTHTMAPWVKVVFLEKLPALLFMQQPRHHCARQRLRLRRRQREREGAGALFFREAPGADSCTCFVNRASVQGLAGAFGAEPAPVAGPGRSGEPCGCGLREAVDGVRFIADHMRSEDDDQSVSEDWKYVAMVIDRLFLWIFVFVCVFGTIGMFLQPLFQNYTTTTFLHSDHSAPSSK

[4] = cytisine 1.5 mg, downward titration (COM) schedule
[5] = cytisine 3.0 mg TID, listed as CYT
[6] = cytisine 3.0 mg TID, listed as Cytisinicline
[7] = cytisine 3.0 mg, downward titration (COM) schedule

With `O=c1cccc2n1C[C@@H]1CNC[C@H]2C1` [cytisine, (−)-Cytisine] the “Saliva Cotinine Change from Baseline, LS Means Difference from Placebo” value ([1]; Week 7) was -49.309 ng/mL, the “Saliva Cotinine Actual Value, Mean” value ([1]; Week 8) was 125.966 ng/mL and the “Saliva Cotinine Actual Value, Median” value ([1]; Week 8) was 0 ng/mL. For the same compound, the “Saliva Cotinine Change from Baseline, Mean” value ([1]; Week 8) was -188.539 ng/mL, the “Saliva Cotinine Change from Baseline, Median” value ([1]; Week 8) was -194.655 ng/mL and the “Saliva Cotinine Change from Baseline, LS Means” value ([1]; Week 8) was -192.048 ng/mL. The “Saliva Cotinine Change from Baseline, LS Means Difference from Placebo” value ([1]; Week 8) was -78.107 ng/mL, the “Saliva Cotinine Actual Value, Mean” value ([1]; Week 9) was 121.622 ng/mL and the “Saliva Cotinine Actual Value, Median” value ([1]; Week 9) was 2.030 ng/mL. For the same compound, the “Saliva Cotinine Change from Baseline, Mean” value ([1]; Week 9) was -202.849 ng/mL, the “Saliva Cotinine Change from Baseline, Median” value ([1]; Week 9) was -199.000 ng/mL and the “Saliva Cotinine Change from Baseline, LS Means” value ([1]; Week 9) was -195.014 ng/mL. For the same compound, the “Saliva Cotinine Change from Baseline, LS Means Difference from Placebo” value ([1]; Week 9) was -86.006 ng/mL, the “Saliva Cotinine Actual Value, Mean” value ([1]; Week 10) was 127.718 ng/mL and the “Saliva Cotinine Actual Value, Median” value ([1]; Week 10) was 4.100 ng/mL. For the same compound, the “Saliva Cotinine Change from Baseline, Mean” value ([1]; Week 10) was -200.886 ng/mL, the “Saliva Cotinine Change from Baseline, Median” value ([1]; Week 10) was -197.500 ng/mL and the “Saliva Cotinine Change from Baseline, LS Means” value ([1]; Week 10) was -196.615 ng/mL. For the same compound, the “Saliva Cotinine Change from Baseline, LS Means Difference from Placebo” value ([1]; Week 10) was -62.680 ng/mL, the “Saliva Cotinine Actual Value, Mean” value ([1]; Week 11) was 137.834 ng/mL and the “Saliva Cotinine Actual Value, Median” value ([1]; Week 11) was 10.900 ng/mL. For the same compound, the “Saliva Cotinine Change from Baseline, Mean” value ([1]; Week 11) was -187.683 ng/mL, the “Saliva Cotinine Change from Baseline, Median” value ([1]; Week 11) was -177.500 ng/mL and the “Saliva Cotinine Change from Baseline, LS Means” value ([1]; Week 11) was -186.878 ng/mL. The “Saliva Cotinine Change from Baseline, LS Means Difference from Placebo” value ([1]; Week 11) was -63.262 ng/mL, the “Saliva Cotinine Actual Value, Mean” value ([1]; Week 12) was 157.889 ng/mL and the “Saliva Cotinine Actual Value, Median” value ([1]; Week 12) was 36.550 ng/mL. The “Saliva Cotinine Change from Baseline, Mean” value ([1]; Week 12) was -172.588 ng/mL, the “Saliva Cotinine Change from Baseline, Median” value ([1]; Week 12) was -178.000 ng/mL and the “Saliva Cotinine Change from Baseline, LS Means” value ([1]; Week 12) was -167.731 ng/mL. The “Saliva Cotinine Change from Baseline, LS Means Difference from Placebo” value ([1]; Week 12) was -57.329 ng/mL, the “Saliva Cotinine Actual Value, Mean” value ([1]; Week 16) was 181.742 ng/mL and the “Saliva Cotinine Actual Value, Median” value ([1]; Week 16) was 140.000 ng/mL. The “Saliva Cotinine Change from Baseline, Mean” value ([1]; Week 16) was -146.358 ng/mL, the “Saliva Cotinine Change from Baseline, Median” value ([1]; Week 16) was -116.000 ng/mL and the “Saliva Cotinine Change from Baseline, LS Means” value ([1]; Week 16) was -145.035 ng/mL. For the same compound, the “Saliva Cotinine Change from Baseline, LS Means Difference from Placebo” value ([1]; Week 16) was -54.792 ng/mL, the “Quit Rate, End-of-Treatment Week 4” value ([2]; cytisine 1.5 mg TID) was 52% and the “Quit Rate, End-of-Treatment Week 4” value [2, 4] was 51%. The “Quit Rate, End-of-Treatment Week 4” value ([2]; cytisine 3.0 mg TID) was 54%, the “Quit Rate, End-of-Treatment Week 4” value [2, 5] was 54% and the “Quit Rate, End-of-Treatment Week 4” value [2, 6] was 54%. The “Quit Rate, End-of-Treatment Week 4” value [2, 7] was 50%, the Serum cotinine levels ([2]; all cytisine-treated arms, Week 4) was “material reduction in cotinine levels” and the “OR for initial quit rate at Week 4 versus placebo” value ([2]; cytisine 1.5 mg TID) was 5.81. The “OR for prolonged abstinence Week 5 to Week 8 versus placebo” value ([2]; cytisine 1.5 mg TID) was 4.33, the “Reduction in cigarettes smoked” value ([2]; cytisine 1.5 mg TID) was 79% and the “OR for initial quit rate at Week 4 versus placebo” value ([2]; cytisine 1.5 mg, COM schedule) was 5.59. The “OR for prolonged abstinence Week 5 to Week 8 versus placebo” value ([2]; cytisine 1.5 mg, COM schedule) was 3.23, the “Reduction in cigarettes smoked” value [2, 4] was 80% and the “OR for initial quit rate at Week 4 versus placebo” value ([2]; cytisine 3.0 mg TID) was 6.31. For the same compound, the “OR for prolonged abstinence Week 5 to Week 8 versus placebo” value ([2]; cytisine 3.0 mg TID) was 5.04, the “Reduction in cigarettes smoked” value ([2]; cytisine 3.0 mg TID) was 74% and the “OR for initial quit rate at Week 4 versus placebo” value [2, 6] was 6.3. For the same compound, the “OR for prolonged abstinence Week 5 to Week 8 versus placebo” value [2, 6] was 5.0, the “OR for initial quit rate at Week 4 versus placebo” value ([2]; cytisine 3.0 mg, COM schedule) was 5.38 and the “OR for prolonged abstinence Week 5 to Week 8 versus placebo” value ([2]; cytisine 3.0 mg, COM schedule) was 2.24. The “Reduction in cigarettes smoked” value [2, 7] was 78%, the “Drug-placebo difference in quit rate” value ([2]; 4 weeks = end of treatment) was 38.3% and the “Drug-placebo difference in quit rate” value ([2]; 4 weeks off treatment (Weeks 5-8)) was 22.2%. The “Reduction in CO” value ([2]; cytisine 1.5 mg TID) was 71%, the “Reduction in CO” value [2, 4] was 78% and the “Reduction in CO” value ([2]; cytisine 3.0 mg TID) was 80%. For the same compound, the “Reduction in CO” value [2, 7] was 71%, the “Cigarette Score effect estimate (3.0 mg TID versus pooled placebo)” value ([2]; not weighted, diary start: Quit Day (8th day after start of intervention)) was −11.8 and the “Cigarette Score effect estimate (3.0 mg TID versus pooled placebo)” value ([2]; not weighted, diary start: start of intervention (primary outcome)) was −9.5. For the same compound, the “Quit Rate, Continuous Abstinence Weeks 5 to 8” value (shortened to “Quit Rate … to 8”) ([2]; cytisine 1.5 mg TID) was 27%, the “Quit Rate … to 8” value [2, 4] was 22% and the “Quit Rate … to 8” value ([2]; cytisine 3.0 mg TID) was 30%. The “Quit Rate … to 8” value [2, 5] was 30%, the “Quit Rate … to 8” value [2, 6] was 30% and the “Quit Rate … to 8” value [2, 7] was 16%. For the same compound, the “Cigarette Score effect estimate (3.0 mg TID versus pooled placebo)” value ([2]; weighted analysis, diary start: Quit Day (8th day after start of intervention)) was −15.0, the “Cigarette Score effect estimate (3.0 mg TID versus pooled placebo)” value ([2]; weighted analysis, diary start: start of intervention) was −11.8 and the “Binding to α4β2 receptors” value [3] was “bind strongly and preferentially”.
